Like-named read-outs stand apart in the source and are kept apart here.
Key:
[1] = test system: HIV-1 EFV^R (K103R + V179D + P225H mutant); test: microbe, parasite or virus in culture; assay type: cell-based, Human Immunodeficiency Virus type-1; settings: Human immunodeficiency virus 1, MT4, 96 h, read-out: EC50 EFV^R
[2] = test system: HIV-1 MDR strain (74V, 41L, 106A, 215Y); test: microbe, parasite or virus in culture; assay type: cell-based, Human Immunodeficiency Virus type-1; settings: for EC50: Human immunodeficiency virus 1, MT4, read-out: EC50 MDR
[3] = test system: VSV; test: microbe, parasite or virus in culture; assay type: cell-based; settings: Vesicular stomatitis virus, Vero 76, read-out: VSV EC50
[4] = test system: HSV-1; test: microbe, parasite or virus in culture; assay type: cell-based, human herpes 1; settings: Human alphaherpesvirus 1, Vero 76, read-out: HSV-1 EC50
[5] = test system: Reo-1; test: microbe, parasite or virus in culture; assay type: cell-based, reovirus type-1; settings: Reovirus sp., BHK, read-out: Reo-1 EC50
[6] = in vitro; settings: Syrian hamster (Mesocricetus auratus)
[7] = test system: Sb-1; test: microbe, parasite or virus in culture; assay type: cell-based, poliovirus type-1; settings: Enterovirus C, Vero 76, read-out: Sb-1 EC50
[8] = test system: VV; test: microbe, parasite or virus in culture; assay type: cell-based; settings: Orthopoxvirus vaccinia, Vero 76, read-out: VV EC50
[9] = test system: YFV; test: microbe, parasite or virus in culture; assay type: cell-based; settings: Yellow fever virus, BHK, read-out: YFV EC50
[10] = test system: HIV-1 AZT^R strain (67N, 70R, 215F, 219Q); test: microbe, parasite or virus in culture; assay type: cell-based, Human Immunodeficiency Virus type-1; settings: for EC50: Human immunodeficiency virus 1, MT4, read-out: EC50 AZT^R
[11] = in vitro; settings: human
[12] = test system: RSV; test: microbe, parasite or virus in culture; assay type: cell-based, human respiratory syncytial virus; settings: human respiratory syncytial virus, Vero 76, read-out: RSV EC50
[13] = test system: BVDV; test: microbe, parasite or virus in culture; assay type: cell-based, bovine viral diarrhoea virus; settings: Bovine viral diarrhea virus isolates and strains, MDBK, in Bos taurus, read-out: BVDV EC50
[14] = test system: HIV-1 A17 (K103N + Y181C mutant); test: microbe, parasite or virus in culture; assay type: cell-based, Human Immunodeficiency Virus type-1; settings: for EC50: Human immunodeficiency virus 1, MT4, 96 h, read-out: EC50 A17
[15] = test system: HIV-1 N119 (Y181C mutant); test: microbe, parasite or virus in culture; assay type: cell-based, Human Immunodeficiency Virus type-1; settings: Human immunodeficiency virus 1, MT4, read-out: EC50 N119
[16] = in vitro; settings: African green monkey (Cercopithecus aethiops)
[17] = test system: HIV-1; test: microbe, parasite or virus in culture
[18] = test system: CV-B5; test: microbe, parasite or virus in culture; assay type: cell-based, coxsackievirus B5; settings: Enterovirus B, CVB5, Vero 76, read-out: CV-B5 EC50
[19] = in vitro; settings: cattle (Bos taurus)
[20] = Cytotoxicity, MTT method; settings: human
[21] = Cytotoxicity, MTT method; settings: African green monkey (Cercopithecus aethiops)
[22] = Cytotoxicity, MTT method; settings: cattle (Bos taurus)
[23] = Cytotoxicity, MTT method; settings: Syrian hamster (Mesocricetus auratus)
[24] = Human immunodeficiency virus 1, MT4, read-out: EC50 HIV-1
[25] = Human immunodeficiency virus 1, MT4, read-out: HIV-1 EC50

Row | SMILES | EC50 [1] | EC50 [2] | EC50 [3] | EC50 [4] | EC50 [5] | EC50 [7] | EC50 [8] | EC50 [9] | EC50 [10] | CC50 [11] | EC50 [12] | EC50 [13] | melting point | EC50 [14] | EC50 [15] | EC50 [17, 24] | EC50 [17, 25] | EC50 [18] | also measured
1 | S=C(NCCc1c[nH]c2ccccc12)Nc1ccc(Br)cc1 [Compound 8, 1-(2-(1H-Indol-3-yl)ethyl)-3-(4-bromophenyl)thiourea] | > 45 µM | 9 ± 0.8 µM | > 13 µM | > 13 µM | > 10 µM | > 13 µM | > 13 µM | > 10 µM | 9000 ± 1000 nM | 45 µM | > 13 µM | > 52 µM | 156 to 158 °C | 12 ± 1.5 µM | > 45 µM | 8.7 ± 0.8 µM | 8.7 ± 0.4 µM | > 13 µM | activity against MDR strain compared with wild type (in words) [2]: comparable with those of HIV-1 wild-type; CC50 [6]: 10 µM; activity against AZT^R strain compared with wild type (in words) [10]: comparable with those of HIV-1 wild-type; activity against A17 strain compared with wild type (in words) [14]: comparable with those of HIV-1 wild-type; CC50 [16]: 13 µM; CC50 [19]: 52 µM
2 | Cc1ccnc2c1NC(=O)c1cccnc1N2C1CC1 [Nevirapine] | 100 µM | 5 ± 0.6 µM |  |  |  |  |  |  | 78 ± 8 nM | > 100 µM |  |  |  | 80 µM | 6.3 ± 0.05 µM | 0.08 ± 0.005 µM |  |  | 
3 | O=C1Nc2ccc(Cl)cc2[C@@](C#CC2CC2)(C(F)(F)F)O1 [Efavirenz] | 7 ± 0.8 µM |  |  |  |  |  |  |  | 1 ± 0.2 nM | 40 µM |  |  |  | 0.075 ± 0.009 µM | 0.018 ± 0.002 µM |  |  |  | 
4 | COc1ccc(NC(=S)NCCc2c[nH]c3ccccc23)cc1 [Compound 2, 1-(2-(1H-Indol-3-yl)ethyl)-3-(4-methoxyphenyl)thiourea] |  |  | > 56 µM | > 56 µM | > 44 µM | > 56 µM | > 56 µM | > 44 µM |  |  | > 56 µM | > 100 µM | 146 to 148 °C |  |  |  | > 32 µM | > 56 µM | CC50 [20]: 32 µM; CC50 [21]: 56 µM; CC50 [22]: > 100 µM; CC50 [23]: 44 µM

— paper PMC6222422, “Synthesis and Biological Evaluation of Novel Indole-Derived Thioureas” (Molecules : A Journal of Synthetic Chemistry and Natural …, 2018)
